Each structure is given as a SMILES string.

The test system of one assay is ZR-75-1 cells. Put plainly: Proliferation assay ZR-75-1 (Alamar Blue, 144 h). Type of assay: cell-based. The note with it: Homo sapiens, ZR-75-1, 144 h, arithmetic mean, read-out: ZR75-1 proliferation assay, EC50 [M] (arithmetic mean). The method, boiled down: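 Cells seeded at 3000/well in RPMI 1640 with 2.5% FBS and treated 24 h later across 2.0×10E-5 to 2.0×10E-9 M (9 dilutions, 0.2% DMSO, triplicate). After 144 h at 37 °C, 5% CO2, viability read by Alamar Blue fluorescence at 590 nm following 2 h reagent incubation.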

The subject of another assay is MDA-MB-436 cells. The experiment in a line: Proliferation assay MDA-MB-436, negative control cell line (Alamar Blue, 144 h). Type of assay: cell-based. The note with it: Homo sapiens, MDA-MB-436, 144 h, arithmetic mean. The method, boiled down:
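MDA-MB-436 cells (3000/well, DMEM/Ham's F12 with 2.5% FBS) treated 24 h after plating with compounds at 2.0×10E-5 to 2.0×10E-9 M (9 dilutions, 0.2% DMSO), triplicates, 144 h at 37 °C, 5% CO2. Viability by Alamar Blue, 2 h, fluorescence at 590 nm.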
On the technique in general: Alamar Blue is a resazurin reagent that responds to reducing activity.

The target in assay [1] is Recombinant human GST-tagged Kat6b protein (431-end). Put plainly: Kat6b activity assay (TR-FRET, acetylation of biotinylated Histone-H4-derived peptide). The format is biochemical. Particulars: 30 mins at 22° C., read-out: KAT6B activity assay IC50 [mol/l] (arithmetic mean). How it is done: Kat6b inhibitory activities of the compounds described in the present invention were quantified using a Fluorescence Resonance Energy Transfer (TR-FRET) assay which measures acetylation of a synthetic, biotinylated Histone-H4-derived peptide by the enzyme.
In this case 50 nl DMSO were used instead of compounds. […] IC50 values were determined by regression analysis based on a 4 parameter equation (minimum, maximum, ICM, Hill; Y=Max+(Min−Max)/(1+(X/ICso) Hill) using the Screener Software (Genedata).
For orientation: In TR-FRET formats the signal depends on donor and acceptor labels being close together.

For assay [2], the target named is Recombinant human His-tagged Kat6a protein (amino acids 194-810) (Homo sapiens (Human), UniProt Q92794). Put plainly: Kat6a activity assay (TR-FRET, acetylation of biotinylated Histone-H4-derived peptide). Particulars: 60 mins at 22° C., read-out: KAT6A-DPF/HAT domain IC50 [mol/l] (arithmetic mean). The format is biochemical. The gist of the method:
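Sf9-expressed human His-Kat6a (aa 194-810) incubated 60 min at 22 °C with compounds (0.01-20 μM) in Tris pH 8 buffer containing 220 nM biotinylated H4 peptide (aa 1-24) and 600 nM acetyl-CoA. Acetyl-K8 detected by TR-FRET (665/620 nm ratio); IC50 by four-parameter fit versus DMSO controls.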

The test system of assay [3] is ESR1 transcription (luciferase signal in MVLN cells). The experiment in a line: Repression of ESR1 transcription, luciferase reporter in MVLN cells. Type of assay: cell-based. The note with it: Homo sapiens, MVLN, inhibition of luciferase signal in MVLN cells; arithmetic mean. The method, boiled down: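 MVLN cells (constitutive ER, stably carrying a Vitellogenin A2 hormone-responsive element–luciferase reporter) treated in duplicate; luciferase read after 24 h. Cell density checked by Alamar Blue fluorescence (530/590 nm) after 2 h to exclude cell-loss effects.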
(In a reporter assay the amount or activity of a reporter protein is the signal.)

Recombinant human His-tagged Kat6a protein (amino acids 194-810), sequence (Q92794 194-810): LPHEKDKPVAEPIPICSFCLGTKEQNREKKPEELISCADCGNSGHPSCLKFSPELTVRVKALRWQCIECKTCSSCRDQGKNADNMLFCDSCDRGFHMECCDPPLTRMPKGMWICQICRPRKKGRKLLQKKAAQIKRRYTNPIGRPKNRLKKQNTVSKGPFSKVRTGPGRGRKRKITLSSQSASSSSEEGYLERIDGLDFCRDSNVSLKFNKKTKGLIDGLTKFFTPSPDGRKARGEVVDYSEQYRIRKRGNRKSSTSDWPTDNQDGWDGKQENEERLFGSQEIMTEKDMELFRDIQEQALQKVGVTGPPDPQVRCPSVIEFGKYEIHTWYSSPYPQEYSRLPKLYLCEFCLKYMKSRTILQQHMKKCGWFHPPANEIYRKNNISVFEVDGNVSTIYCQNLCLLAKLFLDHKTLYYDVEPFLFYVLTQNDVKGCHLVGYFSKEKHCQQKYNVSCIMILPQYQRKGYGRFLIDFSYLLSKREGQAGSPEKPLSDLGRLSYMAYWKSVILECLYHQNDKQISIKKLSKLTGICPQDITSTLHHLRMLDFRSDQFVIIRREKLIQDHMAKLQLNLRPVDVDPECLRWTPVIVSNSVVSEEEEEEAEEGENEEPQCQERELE

Consider `CCN(C)c1ccc2cc(C(=O)NS(=O)(=O)c3ccccc3-c3ccccc3)oc2c1` [Example 1, 6-[Ethyl(methyl)amino]-N-(2-phenylphenyl)sulfonyl-benzofuran-2-carboxamide], for which the EC50 with ZR-75-1 cells was 8.93e-07 M; in the assay with MDA-MB-436 cells, over 20 µM. The IC50 is 836 nM in assay [1], 599 nM in assay [2] and 1840 nM in assay [3].

With `CCN(C)c1ccc2cc(C(=O)NS(=O)(=O)c3ccccc3)oc2c1` [Example 2, N-(Benzenesulfonyl)-6-[ethyl(methyl)amino]benzofuran-2-carboxamide], the results for the EC50 with ZR-75-1 cells and with MDA-MB-436 cells were 1.08e-05 M and over 20 µM, respectively. Moreover, the IC50 is 5700 nM in assay [1], 4800 nM in assay [2] and 3500 nM in assay [3].

Turning to `CN(C)c1ccc2cc(C(=O)NS(=O)(=O)c3ccccc3OC(F)(F)F)oc2c1` [Example 31, 6-(Dimethylamino)-N-[2-(trifluoromethoxy)benzene-1-sulfonyl]-1-benzofuran-2-carboxamide], the figures for the EC50 in the assay with ZR-75-1 cells and with MDA-MB-436 cells were 8.14e-08 M and over 20 µM, respectively. For the same compound, the results for the IC50 in assay [1] and in assay [2] were 59.1 nM and 53 nM, respectively.

With `Cc1ccccc1S(=O)(=O)NC(=O)c1cc2ccc(N(C)C)cc2o1` [Example 32, 6-(Dimethylamino)-N-(2-methylbenzene-1-sulfonyl)-1-benzofuran-2-carboxamide], the EC50 is 3.78e-07 M in the assay on ZR-75-1 cells and over 20 µM in the assay with MDA-MB-436 cells. The figures for the IC50 in assay [1] and in assay [2] were 423 nM and 224 nM, respectively.

`CN(C)c1ccc2cc(C(=O)NS(=O)(=O)c3ccccc3C#N)oc2c1` [Example 33, N-(2-Cyanobenzene-1-sulfonyl)-6-(dimethylamino)-1-benzofuran-2-carboxamide]: the results for the EC50 with ZR-75-1 cells and in the assay on MDA-MB-436 cells were 6.26e-06 M and over 20 µM, respectively. Moreover, the values for the IC50 in assay [1] and in assay [2] were over 20000 nM and 2720 nM, respectively.

For `CN(C)c1ccc2cc(C(=O)NS(=O)(=O)c3ccccc3F)oc2c1` [Example 34, 6-(Dimethylamino)-N-(2-fluorobenzene-1-sulfonyl)-1-benzofuran-2-carboxamide], the EC50 in the assay on ZR-75-1 cells was 5.78e-07 M; in the assay with MDA-MB-436 cells it was over 20 µM. The IC50 in assay [1] is 504 nM; in assay [2], 417 nM.

As for `CN(C)c1ccc2cc(C(=O)NS(=O)(=O)c3ccccc3-c3ccccc3)sc2c1` [Example 48, N-([1,1′-Biphenyl]-2-sulfonyl)-6-(dimethylamino)-1-benzothiophene-2-carboxamide], the EC50 in the assay with MDA-MB-436 cells is over 20 µM. The IC50 worked out at 450 nM in assay [1], 310 nM in assay [2] and 785 nM in assay [3].

For `Cc1cc(Cl)c2cccc(S(=O)(=O)NC(=O)c3cc4ccc(N(C)C)cc4o3)c2n1` [Example 83, N-(4-Chloro-2-methylquinoline-8-sulfonyl)-6-(dimethylamino)-1-benzofuran-2-carboxamide], the EC50 in the assay with ZR-75-1 cells amounted to 1.13e-06 M. In addition, the IC50 is 55.4 nM in assay [1], 48.8 nM in assay [2] and 209 nM in assay [3].

`COc1cc(C)ccc1S(=O)(=O)NC(=O)c1cc2ccc(N(C)C)cc2o1` [Example 127, 6-(Dimethylamino)-N-(2-methoxy-4-methylbenzene-1-sulfonyl)-1-benzofuran-2-carboxamide]: the EC50 in the assay on MDA-MB-436 cells is over 20 µM. The IC50 amounted to 56.2 nM in assay [1], 71.2 nM in assay [2] and 62.5 nM in assay [3].

`CC(C)c1ccc(OCC2CC2)c(S(=O)(=O)NC(=O)c2cc3ccc(N(C)C)cc3o2)c1` [Example 177, N-[2-(cyclopropylmethoxy)-5-isopropyl-phenyl]sulfonyl-6-(dimethylamino)benzofuran-2-carboxamide]: the EC50 in the assay with ZR-75-1 cells was found to be 6.97e-08 M. Besides, the IC50 in assay [1] is 24 nM; in assay [2], 7.91 nM; in assay [3], 29.1 nM.

The record behind these values is US12357603B2, “Acyl sulfonamides for treating cancer” (Bayer Aktiengesellschaft, priority 2019, dated 2025).
